The subject of experiment [1] is mandible and tibia of micropigs. The note with it: hydrophilized implants coated with alendronate vs uncoated implants, 0 to 6 weeks, FIGS. 3 and 4. Here is the method:
(§1) In order to impart hydrophilicity to the implants which were subjected to the above processes, the titanium surface was hydrophilized by plasma treatment (RFGD, O2, etc.) for 1 minutes and light radiation (ultraviolet rays, ultraviolet-ozone, etc.) for 5 minutes. Then, a 10 ml solution of 40 μg Alendronate, 40 μg Zolendronate, 1 μg BMP-2, and 40 μg Alendronate+1 μg BMP-2 was uniformly applied to the surface, and the prepared implants, in which the solution was not dried, were used in the following Examples 2, 3 and 4.

A further experiment concerns tibia of micropigs. The note with it: implants coated with rhBMP-2 and alendronate vs implants coated only with rhBMP-2, after 16 days, FIG. 6. Here is the method:
as §1

Another experiment relates to implant-bone interface. The experiment is described as follows: Removal torque of coated implants just after coating and after 3-year storage. The class given is in vivo. On the set-up: Removal torque: unit not given here. The following applies: for removal torque compared with other bisphosphonates and bare implant (in words): summary of Table 1, bisphosphonate-coated implants; for removal torque compared with other dental implants (in words): summary of Table 2, implants coated with both rhBMP-2 and bisphosphonate. The protocol:
In order to confirm the long-time storage stabilities of implant, osseointegration at implant-bone interface were measured via removal torque.
Each dental implant was coated with various bisphosphonates as described example 1 and its removal torque was measured just after coating step and 3-year self-storage, respectively.
Similarly, osseointegration at implant-bone interface were measured via removal torque for dental implants wherein the osteoclast activity inhibitor coating film further comprises a bone growth factor (BMP-2) as shown in Table 2.

[2] abbreviates: storage period 0 year, implants coated with 10 ml solution of 40 μg bisphosphonate.
The mark [3] stands for this setting: storage period 0 year, implants coated with 10 ml solution of 40 μg bisphosphonate and 1 μg rhBMP-2.
The mark [4] stands for this setting: storage period 3 year, implants coated with 10 ml solution of 40 μg bisphosphonate.
The mark [5] stands for this setting: storage period 3 year, implants coated with 10 ml solution of 40 μg bisphosphonate and 1 μg rhBMP-2.

Each structure is given as a SMILES string.

Take `NCCCC(O)(P(=O)(O)O)P(=O)(O)O` [Alendronate]: the “decrease in ISQ values compared to the negative control group” value in experiment [1] is on record as “little decrease in ISQ values or the degree of the decrease was very lower”. For the same molecule, the “increase of removal torque compared to the negative control group” value with tibia of micropigs is on record as “about 23%”. Also, the Removal torque amounted to 100.2 ± 8.4 in the experiment on implant-bone interface (setting [2]), 130.1 ± 9.7 in the experiment with implant-bone interface (setting [3]), 99.4 ± 11.8 in the experiment on implant-bone interface (setting [4]) and 129.8 ± 13.1 in the experiment with implant-bone interface (setting [5]). Besides, in the experiment on implant-bone interface, the “removal torque compared with other bisphosphonates and bare implant (in words)” value is listed as “higher removal torque”. In addition, in the experiment on implant-bone interface, the “removal torque compared with other dental implants (in words)” value is reported as “higher removal torque value”.
Take `CCCCCN(C)CCC(O)(P(=O)(O)O)P(=O)(O)O` [Ibandronate]: the Removal torque is reported as 98.4 ± 12.1 with implant-bone interface (setting [2]), 128.8 ± 13.4 with implant-bone interface (setting [3]), 85.4 ± 12.5 in the experiment with implant-bone interface (setting [4]) and 110.8 ± 13.4 in the experiment on implant-bone interface (setting [5]).
`NCCC(O)(P(=O)(O)O)P(=O)(O)O` [Pamindronate]: the Removal torque in the experiment with implant-bone interface (setting [2]) was determined as 99.6 ± 7.9; with implant-bone interface (setting [3]), 127.5 ± 12.2; in the experiment with implant-bone interface (setting [4]), 84.1 ± 11.4; in the experiment with implant-bone interface (setting [5]), 109.7 ± 12.2.
With `O=P(O)(O)C(O)(Cc1cccnc1)P(=O)(O)O` [Resendronate], the Removal torque with implant-bone interface (setting [2]) amounted to 103.5 ± 9.3; in the experiment with implant-bone interface (setting [3]), 128.1 ± 11.6; with implant-bone interface (setting [4]) it was 83.2 ± 9.3.
On to `O=P(O)(O)C(O)(Cn1ccnc1)P(=O)(O)O` [Zolendronate], for which the Removal torque with implant-bone interface (setting [2]) was determined as 104.4 ± 11.1; in the experiment on implant-bone interface (setting [3]) it was 134.4 ± 11.9; with implant-bone interface (setting [4]), 103.8 ± 8.9; in the experiment with implant-bone interface (setting [5]) it was 132.5 ± 10.7. Besides, the “removal torque compared with other bisphosphonates and bare implant (in words)” value with implant-bone interface is reported as “higher removal torque”. The “removal torque compared with other dental implants (in words)” value in the experiment on implant-bone interface was “higher removal torque value”.

Values taken from patent US10188770B2, “Dental implant having enhanced early stability and method for manufacturing same” (OSSTEMIMPLANT CO., LTD., priority 2014, dated 2019).
